Reference: US12172989B2, “Histone acetyltransferase (HAT) inhibitor and use thereof” (SHANGHAI INSTITUTE OF MATERIA MEDICA, CHINESE ACADEMY OF …, priority 2018, dated 2024)

Tests used:
[1] = target: T1, histone acetyltransferase p300 (Homo sapiens, UniProt Q09472); assay: Histone acetyltransferase (p300) activity assay (radioisotope, [3H]-Ac-CoA); format: biochemical; settings: p300 0.05 nM; histone peptide 600 nM, [3H]-Ac-CoA 250 nM; 60 min at room temperature; read-out: Inhibition rate IC50
T1 construct: purchased BPS Corporation 50071
T1 sequence (Q09472 1284-1673 limits assumed): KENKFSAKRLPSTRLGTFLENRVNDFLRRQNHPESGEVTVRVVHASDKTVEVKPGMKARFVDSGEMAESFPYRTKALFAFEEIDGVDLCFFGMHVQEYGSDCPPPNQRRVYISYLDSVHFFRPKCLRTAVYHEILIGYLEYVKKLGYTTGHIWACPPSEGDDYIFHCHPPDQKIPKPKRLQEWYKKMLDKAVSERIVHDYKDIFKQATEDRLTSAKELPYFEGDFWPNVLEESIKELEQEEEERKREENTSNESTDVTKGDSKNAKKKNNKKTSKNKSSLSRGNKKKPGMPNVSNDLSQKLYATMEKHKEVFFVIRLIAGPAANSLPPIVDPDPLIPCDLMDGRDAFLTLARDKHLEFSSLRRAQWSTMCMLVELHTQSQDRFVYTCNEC
Description: The reaction was finally terminated with Ac-CoA (Sigma, Cat. No. A2056) without isotope labeling. If the activity of the acetyltransferase p300 was inhibited, the isotope signal cannot be detected on the substrate polypeptide. Therefore, the inhibitory activity of the compound against the acetyltransferase p300 was evaluated.
In the enzyme reaction system, 200 nL of a diluted compound (100% DMSO) was first transferred to a test plate using Echo, where the final concentration of the compound in the enzyme reaction system ranges from 0.25 to 5000 nM. Then 10 μL/well of p300 protein (final concentration of 0.05 nM) was transferred therein, and incubated with the compound for 15 min at room temperature. Then 10 μL/well of a substrate mixture (final concentrations of histone peptide and [^3H]—Ac-CoA were 600 nM and 250 nM, respectively) was added to start the enzyme-catalyzed reaction, and incubated at room temperature for 60 min. Then 10 µL/well of a 250 μM cold Ac-CoA solution was added to stop the reaction. Finally 25 μL/well of the reaction solution was transferred to a 384-well Flashplate (Perkin Elmer, Cat. No. SMP410A001PK), and incubated at room temperature for 1 h. The resultant was washed with double distilled water+0.1% Tween-20 three times. The signal value was read by using Microbeta. The data was analyzed by using GraphPad Prism 5.0 software to obtain IC50.

[2] = tested on: Human castration resistant prostate cancer cell line LNCaP clone FGC; assay: Cell growth inhibition experiment (CellTiter-Glo), LNCaP clone FGC; format: cell-based; settings: Homo sapiens, 120 h, LNCaP clone FGC cells treated with the compound for 5 days
Description: (§1) Human castration resistant prostate cancer cell line 22Rv1 and LNCaP clone FGC (22Rv1 cell line was from ATCC, CRL-2505, LNCaP clone FGC cell line was purchased from Cell Bank of the Chinese Academy of Sciences) were cultured with RPMI 1640 medium (Gibco, available from Life Technologies Corporation, 22400-089) containing 10% fetal bovine serum (Gibco, available from Life Technologies, 10099-141) and 1% antibiotics (penicillin and streptomycin, available from Life Technologies Corporation, 10378016) in a CO2 cell incubator (37° C., 5% CO2). In the cell growth inhibition experiment, 22Rv1 and LNCaP clone FGC cells in exponential growth phase were seeded on a 96-well plate (purchased from Corning Company, 3599) with a volume of 150 μL/well and a cell density of 1,500 cells/well. After seeded, the plate was placed in a CO2 incubator to incubate overnight to allow the cells to adhere. On the next day, 50 μL of a compound at different concentrations diluted in 3-fold gradient or DMSO were added in a 96-well plate containing the cells. The final concentration of the compound ranges from 0.3 to 10000 nM, and the final concentration of DMSO is 0.05% as control group. The cells were treated by the compound for 5 days. Cell viability was measured using CellTiter-Glo reagent (purchased from Promega, G7572): the cell treated with the compound for 5 days was added with CellTiter-Glo reagent at 40 μL/well, incubated at room temperature for 10 min, transferred to a white 96-well plate (OptiPlate-96, purchased from PerkinElmer, 605299) by 70 μL. Subsequently, the luminescence signal was detected using a multifunctional microplate reader EnVision (purchased from PerkinElmer) at a wavelength of 400-700 nm. The data was analyzed by using GraphPad Prism 5.0 software to obtain IC50.

[3] = tested on: Human castration resistant prostate cancer cell line 22Rv1; assay: Cell growth inhibition experiment (CellTiter-Glo), 22Rv1; format: cell-based; settings: Homo sapiens, 120 h, 22Rv1 cells treated with the compound for 5 days
Description: as §1

[4] = tested on: human mantle cell lymphoma (MCL) cell line MAVER-1; assay: Cell growth inhibition experiment (CellTiter-Glo), MAVER-1; format: cell-based; settings: Homo sapiens, Maver1, 120 h, MAVER-1 cells treated with the compound for 5 days
Description: The human mantle cell lymphoma (MCL) cell line MAVER-1 (from ATCC, CRL-3008) was cultured with RPMI 1640 medium (Gibco, available from Life Technologies Corporation, 22400-089) containing […] (Gibco, available from Life Technologies, 10099-141) and 1% antibiotics (penicillin and streptomycin, available from Life Technologies Corporation, 10378016) in a CO2 cell incubator (37° C., 5% CO2). In the cell growth inhibition experiment, MAVER-1 cells in exponential growth phase were seeded on a 96-well plate (purchased from Corning Company, 3599) in a volume of 100 μL/well and a cell density of 1*10E5 cells/well. After seeded, the plate was placed in a CO2 incubator to culture for 1 h. 100 μL of a compound at different concentrations diluted in 3-fold gradient or DMSO were added in a 96-well plate containing the cells. The final concentration of the compound ranges from 0.3 to 10000 nM, and the final concentration of DMSO is 0.05% as control group. The cells were treated with the compound for 5 days. Cell viability was measured using CellTiter-Glo reagent (purchased from Promega, G7572): the cells treated with the compound for 5 days was added with CellTiter-Glo reagent at 20 μL/well, incubated at room temperature for 10 min, transferred to a white 96-well plate (OptiPlate-96, purchased from PerkinElmer, 605299) by 80 μL. Subsequently, the luminescence signal was detected by using a multifunctional microplate reader EnVision (purchased from PerkinElmer) at a wavelength of 400-700 nm. The data was analyzed by using GraphPad Prism 5.0 software to obtain IC50.

IC50 [1] | IC50 [2] | IC50 [3] | IC50 [4] | SMILES
4.8 nM | 78 nM | 127 nM |  | CNC(=O)Nc1ccc2c(c1)CCC21NC(=O)N(CC(=O)N2Cc3ccc(F)cc3CC[C@H]2C2CC2)C1=O (stereo partly shown) [SYY-B033]
< 20 nM |  |  | < 20 nM | CNC(=O)Nc1ccc2c(c1)CCCC21NC(=O)N(CC(=O)N2Cc3cc(F)ccc3OC[C@H]2C2CC2)C1=O (stereo partly shown) [SYY-B092]
< 10 nM |  | < 20 nM | ≤ 20 nM | CNC(=O)Nc1ccc2c(c1)CCCC21OC(=O)N(CC(=O)N2Cc3cc(F)ccc3OC[C@H]2C2CC2)C1=O (stereo partly shown) [SYY-B086]
1.9 nM | 52 nM | 74 nM |  | NC1(C(=O)Nc2ccc3c(c2)CC[C@]32OC(=O)N(CC(=O)N3Cc4ccc(F)cc4CC[C@H]3C3CC3)C2=O)CCC1 [SYY-B039-1]
< 20 nM |  | 121 nM |  | CNC(=O)Nc1ccc2c(c1)OCCC21NC(=O)N(CC(=O)N2Cc3cc(F)ccc3OC[C@H]2C2CC2)C1=O (stereo partly shown) [SYY-B099]
< 10 nM |  | < 10 nM | < 10 nM | Cn1cc(-c2ccc3c(c2)CCC32OC(=O)N(CC(=O)N3Cc4cc(F)ccc4OC[C@H]3C3CC3)C2=O)cn1 (stereo partly shown) [ZB-P-29]
4.3 nM | < 100 nM | < 100 nM |  | Cn1cc(-c2ccc3c(c2)CC[C@]32OC(=O)N(CC(=O)N3Cc4ccc(F)cc4CC[C@H]3C3CC3)C2=O)cn1 [SYY-B041-1]
< 20 nM |  | < 100 nM | < 20 nM | Cn1cc(-c2ccc3c(c2)CCC32OC(=O)N(CC(=O)N3Cc4cc(F)ccc4OC[C@H]3C(F)(F)F)C2=O)cn1 (stereo partly shown) [SYY-B084]
< 10 nM |  | < 10 nM | < 10 nM | Cn1cc(-c2ccc3c(c2)CCC32NC(=O)N(CC(=O)N3Cc4cc(F)ccc4OC[C@H]3C3CC3)C2=O)cn1 (stereo partly shown) [ZB-P-28]
< 5 nM |  | < 300 nM |  | NC1(C(=O)Nc2ccc3c(c2)CC[C@]32OC(=O)N(CC(=O)N3Cc4ccc(F)cc4CC[C@H]3C3CC3)C2=O)CC1 [SYY-B035-1]
12 nM | 78 nM |  |  | CNC(=O)Nc1ccc2c(c1)CC[C@@]21OC(=O)N(CC(=O)N2Cc3ccccc3OC[C@H]2C)C1=O [SYY-B014-2]
< 5 nM |  | < 50 nM |  | Cn1cc(-c2ccc3c(c2)CCC32NC(=O)N(CC(=O)N3Cc4ccc(F)cc4CC[C@H]3C3CC3)C2=O)cn1 (stereo partly shown) [SYY-B043]
< 20 nM |  | < 100 nM | < 50 nM | CNC(=O)Nc1ccc2c(c1)CCC21NC(=O)N(CC(=O)N2Cc3cc(F)ccc3OC[C@H]2C(F)(F)F)C1=O (stereo partly shown) [SYY-B083]
3.4 nM | < 100 nM | < 100 nM |  | Cn1cc(-c2ccc3c(c2)CC[C@@]32OC(=O)N(CC(=O)N3Cc4ccc(F)cc4CC[C@H]3C3CC3)C2=O)cn1 [SYY-B041-2]
< 5 nM |  | < 300 nM |  | NC1(C(=O)Nc2ccc3c(c2)CC[C@@]32OC(=O)N(CC(=O)N3Cc4ccc(F)cc4CC[C@H]3C3CC3)C2=O)CC1 [SYY-B035-2]
< 5 nM |  | < 100 nM |  | CNC(=O)Cn1cc(-c2ccc3c(c2)CCC32NC(=O)N(CC(=O)N3Cc4ccc(F)cc4CC[C@H]3C3CC3)C2=O)cn1 (stereo partly shown) [SYY-B045]

IC50 [1] | IC50 [2] | IC50 [3] | IC50 [4] | SMILES
< 5 nM |  | < 20 nM | < 20 nM | CNC(=O)Nc1ccc2c(c1)OCCC21OC(=O)N(CC(=O)N2Cc3ccc(F)cc3CC[C@H]2C2CC2)C1=O (stereo partly shown) [SYY-B077]
< 10 nM |  |  | < 20 nM | CNC(=O)Nc1ccc2c(c1)OCCC21NC(=O)N(CC(=O)N2Cc3ccc(F)cc3CC[C@H]2C2CC2)C1=O (stereo partly shown) [SYY-B074]
2.4 nM |  | 10.5 nM | 65 nM | CNC(=O)Nc1ccc2c(c1)CC[C@@]21OC(=O)N(CC(=O)N2Cc3cc(F)ccc3OC[C@H]2C(F)(F)F)C1=O [SYY-B057-2]
9.1 nM | 48 nM | 40 nM |  | CNC(=O)Nc1ccc2c(c1)CC[C@]21OC(=O)N(CC(=O)N2Cc3ccccc3CC[C@H]2C(F)(F)F)C1=O [SYY-B027-1]
1.2 nM | 15 nM | 36 nM |  | NC1(C(=O)Nc2ccc3c(c2)CC[C@@]32OC(=O)N(CC(=O)N3Cc4ccc(F)cc4CC[C@H]3C3CC3)C2=O)CCC1 [SYY-B039-2]
< 20 nM |  | < 20 nM | < 20 nM | Cn1cc(-c2ccc3c(c2)CCCC32NC(=O)N(CC(=O)N3Cc4cc(F)ccc4OC[C@H]3C3CC3)C2=O)cn1 (stereo partly shown) [SYY-B093]
< 20 nM |  | < 100 nM | < 50 nM | CNC(=O)Nc1ccc2c(c1)CCC21NC(=O)N(CC(=O)N2Cc3cc(F)ccc3OC[C@H]2C2CC2)C1=O (stereo partly shown) [ZB-P-21]
1.5 nM | 13 nM | 64 nM |  | CC(C)(N)C(=O)Nc1ccc2c(c1)CC[C@]21OC(=O)N(CC(=O)N2Cc3ccc(F)cc3CC[C@H]2C2CC2)C1=O [SYY-B037-1]
6.8 nM |  |  |  | CNC(=O)Nc1ccc2c(c1)CC[C@@]21OC(=O)N(CC(=O)N2Cc3cccnc3CC[C@H]2C2CC2)C1=O [SYY-B081-2]
20.6 nM |  |  |  | CNC(=O)Nc1ccc2c(c1)CC[C@]21OC(=O)N(CC(=O)N2Cc3sccc3OC[C@H]2C2CC2)C1=O [SYY-B100-1]
< 100 nM |  |  |  | Cn1cc(-c2ccc3c(c2)CCCC32OC(=O)N(CC(=O)N3Cc4cc(F)ccc4OC[C@H]3C3CC3)C2=O)cn1 (stereo partly shown) [SYY-B094]
< 5 nM |  |  |  | CNC(=O)Nc1cc2c(cc1F)C1(CC2)OC(=O)N(CC(=O)N2Cc3ccc(F)cc3CC[C@H]2C2CC2)C1=O (stereo partly shown) [ZB-P-31]
42.3 nM |  |  |  | CNC(=O)Nc1ccc2c(c1)CC[C@]21OC(=O)N(CC(=O)N2Cc3ccncc3CC[C@H]2C2CC2)C1=O [SYY-B097-1]
7 nM |  |  |  | CNC(=O)Nc1ccc2c(c1)CC[C@@]21OC(=O)N(CC(=O)N2Cc3sccc3OC[C@H]2C(F)(F)F)C1=O [SYY-B140-2]
< 20 nM |  | < 50 nM | < 10 nM | Cn1cc(-c2ccc3c(c2)CCC32NC(=O)N(CC(=O)N3Cc4cc(F)ccc4OC[C@H]3C(F)(F)F)C2=O)cn1 (stereo partly shown) [SYY-B085]
